Tests used:
[1] = target: T1, Insulin-Receptor Kinase (IRK) (Homo sapiens, UniProt P06213); assay: Cell-free tyrosine kinase inhibition assay IRK from HepG2 cells; format: biochemical
T1 construct: IRK was immunoprecipitated from the lysates with an anti-IRb antibody

JAK3 = target: T2, JAK3 (Homo sapiens, UniProt P52333); assay: Cell-free tyrosine kinase inhibition assay JAK3; format: biochemical
T2 sequence (P52333 1-1124): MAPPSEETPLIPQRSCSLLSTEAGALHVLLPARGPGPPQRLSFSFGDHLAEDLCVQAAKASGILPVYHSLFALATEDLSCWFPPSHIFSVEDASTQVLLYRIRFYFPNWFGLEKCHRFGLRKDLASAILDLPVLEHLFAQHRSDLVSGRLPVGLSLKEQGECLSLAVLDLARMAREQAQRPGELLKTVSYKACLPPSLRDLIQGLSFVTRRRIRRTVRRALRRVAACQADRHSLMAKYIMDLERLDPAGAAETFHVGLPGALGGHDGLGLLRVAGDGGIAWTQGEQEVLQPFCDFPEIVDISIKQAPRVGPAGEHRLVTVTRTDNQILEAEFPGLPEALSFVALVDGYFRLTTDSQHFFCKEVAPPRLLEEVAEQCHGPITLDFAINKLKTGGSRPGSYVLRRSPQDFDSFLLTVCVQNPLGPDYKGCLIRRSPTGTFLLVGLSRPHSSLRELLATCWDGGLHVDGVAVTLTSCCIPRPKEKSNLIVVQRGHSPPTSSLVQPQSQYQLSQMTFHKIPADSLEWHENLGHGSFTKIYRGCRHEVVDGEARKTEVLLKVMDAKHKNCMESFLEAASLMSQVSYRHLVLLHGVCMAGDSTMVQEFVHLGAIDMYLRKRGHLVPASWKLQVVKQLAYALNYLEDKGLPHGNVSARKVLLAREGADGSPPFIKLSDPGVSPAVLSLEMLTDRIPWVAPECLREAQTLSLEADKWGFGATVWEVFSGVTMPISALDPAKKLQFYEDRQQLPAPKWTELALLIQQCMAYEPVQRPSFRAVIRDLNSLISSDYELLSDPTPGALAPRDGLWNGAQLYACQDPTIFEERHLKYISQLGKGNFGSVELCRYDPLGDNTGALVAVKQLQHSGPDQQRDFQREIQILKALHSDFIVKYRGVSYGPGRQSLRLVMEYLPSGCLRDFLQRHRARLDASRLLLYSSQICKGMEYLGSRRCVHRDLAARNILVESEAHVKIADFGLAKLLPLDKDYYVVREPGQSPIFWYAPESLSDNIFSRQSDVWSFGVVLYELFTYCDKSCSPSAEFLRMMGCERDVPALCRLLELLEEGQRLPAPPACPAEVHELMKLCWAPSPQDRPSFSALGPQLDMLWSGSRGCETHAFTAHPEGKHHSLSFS

[2] = target: BTK-Fas association in NALM-6-UM1 cells (Homo sapiens, UniProt Q06187); assay: BTK-Fas association, Western blot of BTK immune complexes; format: cell-based; settings: 10 μM x 4 hours
BTK-Fas association in NALM-6-UM1 cells, sequence (Q06187 2-659): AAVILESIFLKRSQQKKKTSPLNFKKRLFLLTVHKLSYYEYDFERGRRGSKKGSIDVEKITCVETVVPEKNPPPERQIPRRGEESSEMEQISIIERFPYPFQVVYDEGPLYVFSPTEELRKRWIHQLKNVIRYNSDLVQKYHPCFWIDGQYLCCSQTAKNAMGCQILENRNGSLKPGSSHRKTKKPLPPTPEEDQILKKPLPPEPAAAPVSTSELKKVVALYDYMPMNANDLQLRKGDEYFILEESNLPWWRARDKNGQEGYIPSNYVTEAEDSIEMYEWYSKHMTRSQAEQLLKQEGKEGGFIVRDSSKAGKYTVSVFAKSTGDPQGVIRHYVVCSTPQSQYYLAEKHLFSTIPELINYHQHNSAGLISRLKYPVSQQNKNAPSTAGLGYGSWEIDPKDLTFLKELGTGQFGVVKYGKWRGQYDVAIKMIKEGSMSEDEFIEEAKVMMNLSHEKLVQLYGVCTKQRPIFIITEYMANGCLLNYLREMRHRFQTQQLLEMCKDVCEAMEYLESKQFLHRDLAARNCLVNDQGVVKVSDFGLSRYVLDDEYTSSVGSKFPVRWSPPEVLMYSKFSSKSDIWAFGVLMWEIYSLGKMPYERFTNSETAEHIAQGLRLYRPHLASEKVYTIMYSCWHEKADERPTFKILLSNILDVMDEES
Experimental: FIGS. 6A-6D: Apoptotic Responses of Human B-lineage Leukemia Cells to Fas Ligation in Relationship to BTK Expression and Function. Anti-BTK and anti-Actin dual-antibody Western blot analysis of whole cell lysates from BTK-positive NALM-6-UM1 (N6-U1) and BTK-deficient RAMOS-1 cells (FIG. 5A). Anti-Fas Western blot analysis of the same cell lysates. [B] Cells were harvested 24 hours after exposure to anti-Fas antibody at 0.1 μg/ml or 1.0 μg/ml concentrations and DNA from Triton-X-100 lysates was analyzed for fragmentation, as described by Uckun, F. M., et al. (1996) Science 273, 1096-1100; and Uckun, F. M., et al. (1995) Science 267, 886-91. […] [C.1] and [C.2] Anti-BTK and anti-Fas Western blot analysis of whole cell lysates from N6-U1 cells treated with the BTK inhibitor LMA-13 (10 μM×4 hours). [C.3] Anti-Fas and Anti-BTK Western blot analysis of anti-BTK antibody immunoprecipitated BTK immune complexes from untreated (=−Inhibitor) and LMA-13-treated (10 μM×4 hours) (=+Inhibitor) N6-U1 cells. [D]. N6-U1 cells were harvested 24 hours after exposure to anti-Fas antibody at 0.1 μg/ml or 1.0 μg/ml concentrations and DNA from Triton-X-100 lysates was analyzed for fragmentation, as described by Uckun, F. M., et al. (1996) Science 273, 1096-1100; and Uckun, F. M., et al. (1995) Science 267, 886-91. […]

[3] = concentrations as high as 100 μg/ml (~278 μM)

T1 sequence (P06213 28-1382): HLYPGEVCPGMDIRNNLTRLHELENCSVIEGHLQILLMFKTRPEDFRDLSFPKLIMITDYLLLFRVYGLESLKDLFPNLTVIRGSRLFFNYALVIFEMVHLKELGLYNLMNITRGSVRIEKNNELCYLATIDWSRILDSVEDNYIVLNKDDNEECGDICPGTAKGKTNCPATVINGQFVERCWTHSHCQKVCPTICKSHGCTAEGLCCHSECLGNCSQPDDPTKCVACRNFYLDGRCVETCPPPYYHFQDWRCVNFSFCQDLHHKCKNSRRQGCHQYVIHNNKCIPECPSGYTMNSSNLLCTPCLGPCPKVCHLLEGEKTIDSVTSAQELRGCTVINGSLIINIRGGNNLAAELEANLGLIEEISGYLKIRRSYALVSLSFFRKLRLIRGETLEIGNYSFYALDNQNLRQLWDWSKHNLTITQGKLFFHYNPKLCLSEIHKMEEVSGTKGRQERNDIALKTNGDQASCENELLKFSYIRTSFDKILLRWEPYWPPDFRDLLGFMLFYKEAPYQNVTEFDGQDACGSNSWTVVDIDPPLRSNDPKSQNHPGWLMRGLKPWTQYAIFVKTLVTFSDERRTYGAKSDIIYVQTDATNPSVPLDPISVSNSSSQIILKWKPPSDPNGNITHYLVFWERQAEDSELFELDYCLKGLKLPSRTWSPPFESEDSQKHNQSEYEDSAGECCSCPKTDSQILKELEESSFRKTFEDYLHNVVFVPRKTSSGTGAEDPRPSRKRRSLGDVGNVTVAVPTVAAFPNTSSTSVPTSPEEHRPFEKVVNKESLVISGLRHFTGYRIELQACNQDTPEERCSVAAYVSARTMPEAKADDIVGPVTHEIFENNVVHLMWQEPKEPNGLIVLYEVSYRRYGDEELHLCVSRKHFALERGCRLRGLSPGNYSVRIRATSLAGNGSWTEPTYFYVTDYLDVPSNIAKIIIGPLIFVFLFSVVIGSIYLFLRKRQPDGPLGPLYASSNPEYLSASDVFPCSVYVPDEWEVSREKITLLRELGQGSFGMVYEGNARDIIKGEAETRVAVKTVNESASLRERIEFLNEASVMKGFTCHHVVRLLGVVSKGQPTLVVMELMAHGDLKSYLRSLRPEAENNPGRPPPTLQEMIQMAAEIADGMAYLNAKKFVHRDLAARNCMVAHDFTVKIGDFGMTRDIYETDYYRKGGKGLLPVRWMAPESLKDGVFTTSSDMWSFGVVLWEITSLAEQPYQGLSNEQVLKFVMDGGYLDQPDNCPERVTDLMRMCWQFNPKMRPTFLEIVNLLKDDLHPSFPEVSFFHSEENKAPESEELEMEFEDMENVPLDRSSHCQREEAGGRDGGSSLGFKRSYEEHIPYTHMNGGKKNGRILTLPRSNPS

With `C/C(O)=C(\C#N)C(=O)Nc1cc(Br)ccc1Br` [LFM-A13, α-Cyano-β-hydroxy-β-methyl-N-(2,5-dibromophenyl)-propenamide] the IC50 ([1]; IRK) was over 278 µM, the “effect on enzymatic activity of IRK” value [1, 3] was “did not affect the enzymatic activity” and the IC50 (JAK3) was over 278 µM. The “effect on enzymatic activity of JAK3” value (JAK3; [3]) was “did not affect the enzymatic activity” and the BTK-Fas association [2] was “abrogates the BTK-Fas association”.

From patent US6753348B2, “BTK inhibitors and methods for their identification and use” (Parker Hughes Institute, priority 1998, dated 2004)
